Test results published in ChEMBL document CHEMBL1201862, “PubChem BioAssay data set” (2004).
Activity calls are given as the source filed them.

Tests used:
[1] = target: NAD-dependent protein deacylase sirtuin-5, mitochondrial (Homo sapiens, UniProt Q9NXA8); assay: sirtuin-5 deacylation blockers, concentration series – biochemical, fluorescence imaging, cherry-pick, set 5, dose response (AID 720591);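 note: desuccinylation of succinyl peptide AMC substrate read as fluorescence after trypsin release; potency of inhibitors that lower fluorescence and may act on trypsin instead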
NAD-dependent protein deacylase sirtuin-5, mitochondrial, sequence (Q9NXA8 whole entry): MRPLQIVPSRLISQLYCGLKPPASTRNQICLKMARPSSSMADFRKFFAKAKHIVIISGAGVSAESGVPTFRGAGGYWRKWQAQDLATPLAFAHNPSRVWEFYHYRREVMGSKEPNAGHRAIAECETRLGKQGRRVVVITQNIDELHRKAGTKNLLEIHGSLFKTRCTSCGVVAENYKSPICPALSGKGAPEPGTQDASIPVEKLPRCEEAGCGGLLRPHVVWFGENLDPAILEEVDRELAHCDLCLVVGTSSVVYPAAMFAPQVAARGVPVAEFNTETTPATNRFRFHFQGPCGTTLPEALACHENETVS

[2] = toxicity to human HepG2 hepatoma cells – cell-based, plate reader, dry powder samples, cytotoxicity control, dose response (AID 1159569); type: functional;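 note: inhibitor potency with signal falling toward the positive control level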
[3] = toxicity to human hepatoma HepG2 cells – cell-based, cherry-picked samples, cytotoxicity control, dose response (AID 1159577); type: functional
[4] = growth inhibition of PfATP4-mutant resistant parasites – NITD609-resistant line, SYBR Green, dry powder, dose response (AID 1159571); type: functional, cell-based;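 note: parasites synchronized at ring stage by sorbitol before testing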
[5] = Dd2 malaria parasite growth inhibition potency – SYBR Green, dry powder samples, dose response (AID 1159566); type: functional, cell-based;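 note: potency for growth inhibition with lower SYBR green DNA signal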
[6] = P. falciparum Dd2 growth inhibitors, dose response, SYBR Green, cherry-picked samples (AID 1159567); type: functional, cell-based
[7] = growth inhibition of yeast DHODH-expressing 3D7 parasites – SYBR Green, dry powder samples, dose response (AID 1159570); type: functional, cell-based;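 note: parasite growth measured after 72 hours of compound exposure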
Kallikrein-7 = Kallikrein-7 (Homo sapiens, UniProt P49862); assay: Fluorescence Intensity-based biochemical primary high throughput dose response assay to identify activators of kallikrein-7 (K7) zymogen.
Kallikrein-7, sequence (P49862 whole entry): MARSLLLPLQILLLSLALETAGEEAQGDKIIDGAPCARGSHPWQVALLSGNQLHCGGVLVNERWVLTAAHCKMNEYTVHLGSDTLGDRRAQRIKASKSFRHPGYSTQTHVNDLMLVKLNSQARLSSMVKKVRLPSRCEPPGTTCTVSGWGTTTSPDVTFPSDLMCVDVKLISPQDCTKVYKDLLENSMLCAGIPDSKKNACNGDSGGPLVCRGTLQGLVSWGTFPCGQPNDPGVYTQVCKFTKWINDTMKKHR

[8] = target: T1, Methionyl-tRNA synthetase, putative (Trypanosoma brucei brucei, UniProt Q38C91); type: functional, Trypanosoma brucei brucei strain 927/4 GUTat10.1
T1 sequence (Q38C91 whole entry): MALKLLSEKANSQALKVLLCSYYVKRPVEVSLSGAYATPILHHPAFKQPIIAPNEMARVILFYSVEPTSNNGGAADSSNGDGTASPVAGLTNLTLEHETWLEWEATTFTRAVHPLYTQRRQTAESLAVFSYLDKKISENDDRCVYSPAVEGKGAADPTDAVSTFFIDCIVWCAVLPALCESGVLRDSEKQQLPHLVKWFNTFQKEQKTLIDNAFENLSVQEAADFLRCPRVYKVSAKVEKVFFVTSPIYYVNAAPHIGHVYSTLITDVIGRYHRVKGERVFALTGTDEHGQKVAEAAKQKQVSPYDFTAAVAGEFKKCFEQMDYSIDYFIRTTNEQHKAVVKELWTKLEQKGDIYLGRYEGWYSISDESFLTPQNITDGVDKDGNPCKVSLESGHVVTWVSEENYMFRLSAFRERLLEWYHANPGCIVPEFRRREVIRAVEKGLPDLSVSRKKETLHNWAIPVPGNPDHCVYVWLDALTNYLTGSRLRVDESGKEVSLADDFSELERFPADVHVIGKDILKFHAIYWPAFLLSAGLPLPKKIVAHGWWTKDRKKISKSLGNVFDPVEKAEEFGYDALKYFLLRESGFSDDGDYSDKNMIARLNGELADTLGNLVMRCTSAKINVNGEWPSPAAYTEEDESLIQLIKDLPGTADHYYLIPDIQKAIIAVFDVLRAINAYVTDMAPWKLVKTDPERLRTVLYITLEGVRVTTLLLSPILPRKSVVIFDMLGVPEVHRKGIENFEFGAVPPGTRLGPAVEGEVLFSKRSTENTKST

[9] = Counterscreen for inhibitors of Trypanosoma brucei methionyl tRNA synthetase (MetRS): Luminescence-based cell-based high throughput dose response assay to identify compounds that are cytotoxic to Jurkat human T lymphocyte cells.; type: functional
[10] = potency of ADAM10 substrate cleavage blockers – biochemical, QFRET, dose response (AID 743254);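 note: ADAM10 enzyme with the DM2 quenched FRET peptide as substrate; EDANS fluorescence gain as the protease cuts the substrate; inhibitor potency against ADAM10 proteolytic activity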
[11] = target: T2, Alkaline phosphatase, tissue-nonspecific isozyme (Homo sapiens, UniProt P05186); assay: TNAP enzyme inhibition by screening hits, dose response, selectivity assay for mouse IAP inhibitor project, biochemical, human TNAP, uHTS hits (AID 488906); type: functional
T2 sequence (P05186 whole entry): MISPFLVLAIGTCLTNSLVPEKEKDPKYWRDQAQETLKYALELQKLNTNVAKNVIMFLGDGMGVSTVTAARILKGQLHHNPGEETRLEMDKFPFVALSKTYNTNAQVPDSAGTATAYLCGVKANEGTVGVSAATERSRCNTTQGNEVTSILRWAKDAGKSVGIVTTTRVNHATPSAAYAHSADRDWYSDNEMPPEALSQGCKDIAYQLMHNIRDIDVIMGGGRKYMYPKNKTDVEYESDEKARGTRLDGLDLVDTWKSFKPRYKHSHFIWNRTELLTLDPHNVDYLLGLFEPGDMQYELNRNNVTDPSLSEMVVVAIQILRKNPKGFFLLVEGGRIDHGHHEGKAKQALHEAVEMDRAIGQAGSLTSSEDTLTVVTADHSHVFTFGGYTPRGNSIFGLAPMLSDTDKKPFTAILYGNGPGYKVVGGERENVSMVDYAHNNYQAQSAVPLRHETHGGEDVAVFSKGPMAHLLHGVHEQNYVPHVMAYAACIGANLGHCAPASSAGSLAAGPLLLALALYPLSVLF

[12] = target: Intestinal-type alkaline phosphatase (Mus musculus, UniProt P24822); assay: PubChem AID 488785; type: functional
Intestinal-type alkaline phosphatase (Mus musculus, UniProt P24822), sequence (P24822 whole entry): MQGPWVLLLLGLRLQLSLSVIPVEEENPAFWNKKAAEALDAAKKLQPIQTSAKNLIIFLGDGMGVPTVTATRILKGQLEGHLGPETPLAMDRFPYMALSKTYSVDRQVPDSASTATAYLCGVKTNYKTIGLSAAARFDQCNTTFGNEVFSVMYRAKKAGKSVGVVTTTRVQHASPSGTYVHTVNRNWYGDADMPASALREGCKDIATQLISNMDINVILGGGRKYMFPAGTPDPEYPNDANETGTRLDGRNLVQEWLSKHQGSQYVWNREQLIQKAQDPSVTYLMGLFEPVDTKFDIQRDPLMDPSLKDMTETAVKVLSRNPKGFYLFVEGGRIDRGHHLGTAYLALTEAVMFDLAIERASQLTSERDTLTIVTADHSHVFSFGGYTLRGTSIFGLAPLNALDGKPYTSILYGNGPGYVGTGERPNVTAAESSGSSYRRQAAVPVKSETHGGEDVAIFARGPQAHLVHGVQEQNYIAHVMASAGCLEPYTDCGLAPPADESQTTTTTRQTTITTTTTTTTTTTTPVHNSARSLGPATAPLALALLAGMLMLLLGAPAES

[13] = target: Intestinal-type alkaline phosphatase (Homo sapiens, UniProt P09923); assay: inhibition of human intestinal alkaline phosphatase – biochemical, dose response (AID 488876); type: functional
Intestinal-type alkaline phosphatase (Homo sapiens, UniProt P09923), sequence (P09923 whole entry, the tested form may be a part): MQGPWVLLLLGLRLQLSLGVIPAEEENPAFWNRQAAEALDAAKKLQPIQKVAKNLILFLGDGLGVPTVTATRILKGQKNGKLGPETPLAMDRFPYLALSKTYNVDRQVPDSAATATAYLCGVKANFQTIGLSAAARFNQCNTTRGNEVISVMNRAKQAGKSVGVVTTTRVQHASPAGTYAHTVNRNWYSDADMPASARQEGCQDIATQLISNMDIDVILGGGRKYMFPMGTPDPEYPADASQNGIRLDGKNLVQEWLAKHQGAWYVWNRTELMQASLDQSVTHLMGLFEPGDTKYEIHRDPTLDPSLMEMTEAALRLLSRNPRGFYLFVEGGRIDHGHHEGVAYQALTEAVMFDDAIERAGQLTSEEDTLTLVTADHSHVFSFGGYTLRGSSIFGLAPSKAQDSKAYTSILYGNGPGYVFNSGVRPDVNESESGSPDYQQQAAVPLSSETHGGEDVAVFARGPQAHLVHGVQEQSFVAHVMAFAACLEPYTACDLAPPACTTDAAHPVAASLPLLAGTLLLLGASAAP

[14] = target: Disintegrin and metalloproteinase domain-containing protein 17 (Homo sapiens, UniProt P78536); assay: inhibition of ADAM17 substrate cleavage – biochemical, quenched FRET substrate, counter-screen for ADAM10 exosite inhibitor project, dose response (AID 743253)
Disintegrin and metalloproteinase domain-containing protein 17, sequence (P78536 whole entry, the tested form may be a part): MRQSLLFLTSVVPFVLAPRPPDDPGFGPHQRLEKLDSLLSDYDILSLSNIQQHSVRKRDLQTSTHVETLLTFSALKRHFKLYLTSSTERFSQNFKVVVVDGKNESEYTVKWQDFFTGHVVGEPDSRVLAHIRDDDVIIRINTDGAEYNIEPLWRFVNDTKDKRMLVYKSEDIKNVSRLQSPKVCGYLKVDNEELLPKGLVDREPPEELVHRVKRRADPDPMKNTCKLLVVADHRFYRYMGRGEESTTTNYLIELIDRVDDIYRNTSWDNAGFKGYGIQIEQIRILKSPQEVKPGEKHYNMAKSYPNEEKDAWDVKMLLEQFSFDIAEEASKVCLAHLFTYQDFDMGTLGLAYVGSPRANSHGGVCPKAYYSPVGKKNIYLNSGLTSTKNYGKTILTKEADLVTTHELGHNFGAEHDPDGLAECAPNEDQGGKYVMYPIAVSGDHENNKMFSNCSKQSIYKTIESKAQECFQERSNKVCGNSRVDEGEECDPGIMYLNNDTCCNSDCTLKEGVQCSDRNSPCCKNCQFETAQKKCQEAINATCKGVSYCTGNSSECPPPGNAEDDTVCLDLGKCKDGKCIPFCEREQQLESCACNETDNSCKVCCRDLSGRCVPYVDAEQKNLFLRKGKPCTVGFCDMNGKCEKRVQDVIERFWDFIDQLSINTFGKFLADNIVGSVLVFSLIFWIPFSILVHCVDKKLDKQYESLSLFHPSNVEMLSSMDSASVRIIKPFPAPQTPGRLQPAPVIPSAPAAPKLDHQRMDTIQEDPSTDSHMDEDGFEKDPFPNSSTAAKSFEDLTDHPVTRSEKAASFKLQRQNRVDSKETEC

[15] = target: T1, Methionyl-tRNA synthetase, putative; type: functional, Trypanosoma brucei brucei strain 927/4 GUTat10.1; remark: listed apart in the source
[16] = cytotoxicity toward HT-29 cells – cell-based, CellTiter-Glo luminescence, IC50, dose response (AID 1117330); type: functional
[17] = cytotoxicity toward HCT116 cells – cell-based, CellTiter-Glo luminescence, IC50, dose response (AID 1117332); type: functional; details: HCT-116
[18] = CellTiter-Glo luminescence survival assay, SW480 colon tumor line, concentration-response curve, half-maximal inhibitory concentration (AID 1117338); type: functional
[19] = Reduced DLD-1 viability, concentration-response, CellTiter-Glo luminescence (AID 1117352); type: functional
Cytochrome P450 2C19 = Cytochrome P450 2C19 (Homo sapiens, UniProt P33261); assay: Cytochrome panel assay with activity outcomes. Panel member name: p450-cyp2c19 Compounds with AC50 equal or less than 10 uM are considered active; type: functional; details: read-out: AC50
Cytochrome P450 2C19, sequence (P33261 whole entry): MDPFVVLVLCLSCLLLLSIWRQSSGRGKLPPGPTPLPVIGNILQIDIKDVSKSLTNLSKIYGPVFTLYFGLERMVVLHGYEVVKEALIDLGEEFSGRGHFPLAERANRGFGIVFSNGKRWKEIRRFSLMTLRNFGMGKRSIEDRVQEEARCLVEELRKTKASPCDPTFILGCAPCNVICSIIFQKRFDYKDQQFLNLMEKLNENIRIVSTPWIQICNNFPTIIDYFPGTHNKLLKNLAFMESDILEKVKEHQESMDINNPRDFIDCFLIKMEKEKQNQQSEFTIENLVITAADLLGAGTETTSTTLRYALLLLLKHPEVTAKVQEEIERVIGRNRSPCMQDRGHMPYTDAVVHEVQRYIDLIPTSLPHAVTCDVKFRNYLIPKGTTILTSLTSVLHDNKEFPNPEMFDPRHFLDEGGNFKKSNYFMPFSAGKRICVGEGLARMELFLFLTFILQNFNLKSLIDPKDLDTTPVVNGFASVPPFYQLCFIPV

[20] = SNU-C1 cell viability reduction, dose response, CellTiter-Glo luminescence (AID 1117323); type: functional, cell-based
Cytochrome P450 2D6 = Cytochrome P450 2D6 (Homo sapiens, UniProt P10635);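 note: CYP2D6 member of a cytochrome P450 panel assay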
Cytochrome P450 2D6, sequence (P10635 whole entry): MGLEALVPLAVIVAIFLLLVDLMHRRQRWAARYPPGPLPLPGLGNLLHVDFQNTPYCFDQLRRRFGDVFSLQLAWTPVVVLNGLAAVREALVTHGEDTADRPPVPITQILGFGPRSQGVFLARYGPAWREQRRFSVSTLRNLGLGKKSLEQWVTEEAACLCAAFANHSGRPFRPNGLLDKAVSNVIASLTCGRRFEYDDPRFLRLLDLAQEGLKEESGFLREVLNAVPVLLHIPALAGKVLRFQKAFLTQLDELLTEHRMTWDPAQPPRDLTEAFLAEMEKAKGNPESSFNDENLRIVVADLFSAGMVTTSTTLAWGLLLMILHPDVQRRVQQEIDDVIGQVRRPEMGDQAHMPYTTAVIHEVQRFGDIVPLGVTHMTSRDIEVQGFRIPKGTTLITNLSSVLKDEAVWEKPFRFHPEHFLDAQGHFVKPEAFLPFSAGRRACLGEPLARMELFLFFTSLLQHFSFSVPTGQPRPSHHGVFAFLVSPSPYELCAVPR

[21] = RKO cell viability reduction, dose response, CellTiter-Glo luminescence (AID 1117322); type: functional
[22] = target: Lysine-specific demethylase 4C (Homo sapiens, UniProt Q9H3R0); assay: inhibition of JMJD2C H3K9me3 demethylation – biochemical, DELFIA europium, cherry-picked samples, dose response (AID 488835); type: functional
Lysine-specific demethylase 4C, sequence (Q9H3R0 whole entry): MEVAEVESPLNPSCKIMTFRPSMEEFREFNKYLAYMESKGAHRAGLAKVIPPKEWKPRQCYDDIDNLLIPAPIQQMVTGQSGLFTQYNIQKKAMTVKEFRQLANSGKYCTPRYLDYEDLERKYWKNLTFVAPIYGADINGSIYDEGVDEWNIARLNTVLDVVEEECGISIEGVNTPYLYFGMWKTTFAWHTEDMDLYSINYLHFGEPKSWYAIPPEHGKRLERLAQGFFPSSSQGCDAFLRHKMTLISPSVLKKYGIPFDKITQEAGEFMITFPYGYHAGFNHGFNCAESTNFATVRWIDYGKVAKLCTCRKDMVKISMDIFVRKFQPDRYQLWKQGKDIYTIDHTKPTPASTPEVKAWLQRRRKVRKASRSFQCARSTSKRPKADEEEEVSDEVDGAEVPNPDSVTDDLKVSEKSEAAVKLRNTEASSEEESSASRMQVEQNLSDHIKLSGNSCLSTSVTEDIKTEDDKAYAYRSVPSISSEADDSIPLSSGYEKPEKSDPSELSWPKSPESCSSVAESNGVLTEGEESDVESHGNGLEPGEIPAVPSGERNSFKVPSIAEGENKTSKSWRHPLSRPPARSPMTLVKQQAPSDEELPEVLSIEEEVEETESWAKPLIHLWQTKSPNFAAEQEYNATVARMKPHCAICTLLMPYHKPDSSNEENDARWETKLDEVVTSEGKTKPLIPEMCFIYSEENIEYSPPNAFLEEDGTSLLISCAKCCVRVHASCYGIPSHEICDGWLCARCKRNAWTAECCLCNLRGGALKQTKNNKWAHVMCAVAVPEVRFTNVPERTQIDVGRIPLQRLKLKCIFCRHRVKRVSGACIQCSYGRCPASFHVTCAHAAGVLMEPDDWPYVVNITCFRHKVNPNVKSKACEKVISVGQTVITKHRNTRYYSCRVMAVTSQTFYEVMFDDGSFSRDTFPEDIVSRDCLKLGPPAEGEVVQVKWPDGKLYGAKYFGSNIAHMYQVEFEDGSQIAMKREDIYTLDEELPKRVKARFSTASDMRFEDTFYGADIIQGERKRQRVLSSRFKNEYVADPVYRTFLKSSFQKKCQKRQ

[23] = HCT116 cell viability decrease, GSK3B pretreatment – CellTiter-Glo, IC50, dose response (AID 1117339); type: functional; details: HCT-116
[24] = cytotoxicity toward Colo320 cells – cell-based, CellTiter-Glo luminescence, IC50, dose response (AID 1117334); type: functional; details: COLO 320
[25] = glucagon-like peptide-1 release potency in STC-1, concentration-response, half-maximal inhibitory concentration in the STC-1 line (AID 1117345); type: functional, cell-based
[26] = microbe, parasite or virus in culture; type: functional; details: Mycobacterium tuberculosis
cells = type: functional, cell-based; details: INS-1E
[27] = Potency on glucagon-like peptide 1 release, dose-response in NCI-H716 cell line, half maximal inhibitory concentration (AID 1117344); type: functional, cell-based
[28] = IC50 of insulin release inhibition, rat insulinoma INS-1E line, 5 mM glucose, cell-based (AID 1117331); type: functional

CCOC(=O)c1cnc(-n2nc(C)cc2C)nc1Oc1ccccc1F
AC50 [1]: > 30 µM (inactive)

C[C@H]1CN([C@@H](C)CO)C(=O)c2c(c3ccccc3n2C)-c2ccccc2CO[C@H]1CN(C)Cc1ccc(-c2ccccc2)cc1
AC50 [2]: 28.9 µM (active)
AC50 [3]: > 39 µM (inactive)
AC50 [4]: 2.1 µM (active)
AC50 [5]: 1.54 µM (active)
AC50 [6]: 2.64 µM (active)
AC50 [7]: 3.14 µM (active)

CCN1CCN(C(=O)COc2ccc3c(c2)C(=O)CC2(CCN(C(C)=O)CC2)O3)CC1
EC50 (Kallikrein-7): > 2.58 µM (active)

CCc1cc(Cn2nc(-c3ccccc3)cc2C(=O)NCc2cccc(Br)c2)on1
IC50 [8]: 2.93 µM (active)
IC50 [9]: 83.3 µM (inactive)
IC50 [10]: > 69.5 µM (inactive)
IC50 [11]: 54.9 µM (active)
IC50 [12]: 12.9 µM (active)
IC50 [13]: > 100 µM (inactive)
IC50 [14]: > 69.5 µM (inactive)
IC50 [15]: 1.66 µM (active)

N#CC(C#N)=Cc1ccc(O)c(O)c1 [TYRPHOSTIN 23]
IC50 [16]: > 20 µM (inactive)
IC50 [17]: > 20 µM (inactive)
IC50 [18]: > 20 µM (inactive)
IC50 [19]: > 20 µM (inactive)
IC50 [11]: 9.97 µM (active)
AC50 (Cytochrome P450 2C19): 15.8 µM (inconclusive)
IC50 [20]: > 20 µM (inactive)
AC50 (Cytochrome P450 2D6): 20 µM (inconclusive)
IC50 [21]: 3.78 µM (active)
IC50 [12]: 4.22 µM (active)
AC50 [22]: 10.8 µM (active)
IC50 [23]: > 20 µM (inactive)
IC50 [24]: 6.74 µM (inactive)
IC50 [13]: > 100 µM (inactive)

Clc1ccc2c(c1)CCc1cccnc1C2=C1CCNCC1 [DESLORATADINE]
IC50 [25]: > 40 µM (inactive)
CC50 [26]: 32.9 µM (active)
IC50 (cells): > 33.3 µM (inactive)
IC50 [27]: > 40 µM (inactive)
IC50 [28]: 7.11 µM (inactive)
